Assay results taken from US20240182526A1, “COMPOSITIONS AND METHODS FOR MODULTING INFLAMMATORY AND DEGENERATIVE DISORDER” (University of Southern California, priority 2021, published 2024).
Entries after “also recorded” stand apart in the source; their conditions may differ.

Columns and labels:
canine OA model = assay: Canine osteoarthritis model (medial meniscal release); assay type: in vivo, dog; conditions: for histological (OARSI) scores of joint sections, matrix catabolism: intra-articular injections at post-operative weeks 4 and 11
Protocol: Single-cell sequencing using 10× Genomics. Single cell samples were prepared using Next GEM Single Cell 5′ v2 (dual index) and Chip Kit (10× Genomics) according to the manufacturer's protocol. Briefly samples were FACS sorted using DAPI to select live cells followed by resuspension in 0.04% BSA-PBS. Nearly 1200 cells/μl were added to each well of the chip with a target cell recovery estimate of 10000 cells. Thereafter Gel bead-in Emulsions (GEMs) were generated using GemCode Single-Cell Instrument. GEMs were reverse transcribed, droplets were broken and single stranded cDNA was isolated. cDNAs were cleaned up with DynaBeads and amplified. Finally, cDNAs were ligated with adapters, post-ligation products were amplified, cleaned-up with SPRIselect and purified libraries were sequenced on Novaseq.
10× Sequencing data analysis. Raw sequencing reads were processed using Partek Flow Analysis Software (build version 10.0.21.0210). Briefly, raw reads were checked for their quality, trimmed and reads with an average base quality score per position>30 were considered for alignment. Trimmed reads were aligned to the dog genome version canFam3-Ensembl_v102 using STAR-2.6.1d with default parameters. Reads with alignment percentage >75% were deduplicated based on their unique molecular identifiers (UMIs). Reads mapping to the same chromosomal location with duplicate UMIs were removed. Thereafter ‘Knee’ plot was constructed using the cumulative fraction of reads/UMIs for all barcodes. Barcodes […] the cut-off defined by the location of the knee were assigned as true cell barcodes and quantified. Further noise filtration was done by removing cells having >5% mitochondrial counts and total read counts >24,000. Genes not expressed in any cell were also removed as an additional clean-up step. Cleaned-up reads were normalized using counts per million (CPM) method followed by log-transformation generating count matrices for each sample. Samples were batch-corrected on the basis of expressed genes and mitochondrial reads percent. Count matrices were used to visualize and explore the samples in further details by generating tSNE plots, a non-linear dimensional reduction technique. This algorithm learns the underlying manifold of the data and places similar cells together in a low-dimensional space. Gene ontology enrichment analysis for the differentially expressed genes was performed using DAVID Gene Functional Classification Tool ([http://]david.abcc.ncifcrf.gov; version 6.8). Dot plots were generated in R (v4.0.3) using ggplot2(v3.3.3).
Immunohistochemistry. Histological staining for was performed on wild type (WT) mice, F814 mice and all mice that underwent destabilization of the medial meniscus (DMM). Six weeks after surgery, mice were sacrificed and joints were fixed in 10% formalin, decalcified in 10% EDTA and embedded in paraffin. For rat model, 6 weeks after partial medial meniscectomy (PMM), rats were sacrificed and joints were fixed in 10% formalin, decalcified in 10% EDTA and embedded in paraffin. A total of three 8 μm thick sections were made at a 200 μm interval by coronal sectioning. For canine model, 4 and 16 weeks after medial meniscal release (MMR), dogs were sacrificed and joints were fixed in 10% formalin, decalcified in 10% EDTA and embedded in paraffin. No animals were excluded from analysis. A microtome (Leica) was used to cut 5-μm sections for joints. H&E staining was performed to assess morphology. Safranin O/Fast Green staining, immunohistochemistry for proteolytic enzymes and Osteoarthritis Research Society International (OARSI) scoring was performed as described (41, 42). For OARSI scoring, observers performing the analysis were blinded as whether the slides were from treated or control animals. The stained samples were visually observed using LSCM (Zeiss LSM710, Carl Zeiss, Germany).
Canine osteoarthritis model. […]

pSRC = assay: Western blot of pSRC in pig articular chondrocytes; assay type: cell-based; conditions: pig articular chondrocytes, OSM, 4 and 24 hours
Protocol: (§1) For standard western blot, treated and non-treated cells were lysed in RIPA Lysis and Extraction Buffer (Pierce, Rockford, IL) containing protease inhibitors (Pierce) followed by sonication with a 15-second pulse at a power output of 2 using the VirSonic 100 (SP Industries Company, Warminster, PA). Protein concentrations were determined by BCA protein assay (Pierce). Proteins were resolved with SDS-PAGE utilizing 4-15% Mini-PROTEAN TGX Precast Gels and transferred to Trans-Blot Turbo Transfer Packs with a 0.2-μm pore-size nitrocellulose membrane. The SDS-PAGE running buffer, 4-15% Mini-PROTEAN TGX Precast Gels, Trans-Blot Turbo Transfer Packs with a 0.2-μm pore-size nitrocellulose membrane was purchased from Biorad (Hercules, CA). Nitrocellulose membranes were blocked in 5% nonfat milk in 0.05% (v/v) Tween 20 (PBST) (Corning, Manassas, VA). Membranes were then incubated with primary antibodies p-gp130 Y814 (Evseenko lab, AbClonal), p-AKT (cat #4060, Cell Signaling), p-ERK 1/2 (cat #9106, Cell Signaling), p-Y416-SRC (cat #1246F, Novus Biologicals), p-gp130 (cat #1453R, Bioss USA) and p-NFκBp65 (cat #8242, Cell Signaling), and/or YAP1 (cat #4912, Cell Signaling). Histone H3 (cat #9515, Cell Signaling) was used as loading control. After washing in PBS containing 0.05% (v/v) Tween 20 (PBST), membranes were incubated with rabbit (cat #31460, Thermo Scientific) or mouse IgG-HRP (cat #31430, Thermo Scientific) secondary antibodies. After washing, membranes were developed with the Clarity Western ECL Blotting Substrate (Hercules, CA). Quantification of blots was performed using ImageJ 1.44 followed by Prism9 for analysis.
The studies delineate that gp130 Y814 regulates SRC downstream signaling; since SRC is known to associate with gp130, it was hypothesized that gp130 and SRC are capable of physically interacting on Y814 and hindering this interaction will prevent SRC from signaling. In order to impede this interaction, experiments were performed using an innovative peptide library screen with short and overlapping peptides mimicking the motif of gp130 around Y814 that were individually tested for pSRC downregulation; these peptides ranged from 4-15 amino acids. The peptides contained a protein sequence stretch of consecutive amino acids surrounding gp130 Y814 residue. To test their efficacy, pig articular chondrocytes were stimulated with or without OSM in presence or absence of the peptides followed by co-immunoprecipitation to determine interaction and western blot detecting pSRC activity. […] Due to sequence specificity, the peptide is capable of discriminating among other gp130 regions serving as a competitive inhibitor.

STAT3 = assay: Western blot of STAT3 signaling in osteoarthritic chondrocytes; assay type: cell-based, human; conditions: 4 and 24 hours
Protocol: as §1, with “After washing in PBS containing 0.05% (v/v) Tween 20 (PBST), membranes were incubated with rabbit (cat #31460, Thermo Scientific) or mouse IgG-HRP (cat #31430, Thermo Scientific) secondary antibodies. After washing, membranes were developed with the Clarity Western ECL Blotting Substrate (Hercules, CA).” left out

Cc1ccc(-c2csc(NC(=O)c3ccccn3)n2)cc1 [Peptide R805]
histological abnormalities of cartilage (canine OA model; 0.1 μg dose group (as in saline group)): focal partial- and full thickness cartilage erosions
cortical outline of the medial tibial plateau (canine OA model; 10 ug and 1 ug doses): almost no change in the cortical outline
bone mineral density (sclerosis) in medial compartment of the operated stifle, microCT (canine OA model; 10 and 1 μg groups): consistent absence of sclerosis
scRNA-seq of synoviocytes: joint inflammatory milieu (canine OA model; R805-treated vs control dogs): biases the joint environment away from a chronic inflammatory identity following injury; also recorded: promotes an anti-inflammatory, anti-fibrotic milieu in an injured joint
knee joint shape change from baseline (serial CT) (canine OA model; canine OA model): clearly controlled; also recorded: dose-dependent reduction in ectopic bone formation
pain (Colorado Pain Scores) (canine OA model; canine OA model): minimal pain
subchondral sclerosis / BMD in the contralateral, non-operated knee (canine OA model; canine OA model): did not develop subchondral sclerosis in the contralateral knee; also recorded: increased with decreasing dose of R805
pain (Colorado Pain Scores) (canine OA model; canine OA model, listed as CX-011): profound effect on alleviating pain
synovial membrane inflammation (canine OA model; high and middle dose groups): mild intimal hypertrophy with occasional subintimal mononuclear cell infiltration; also recorded: reduced by mid and high doses of R805
lameness scores (canine OA model; high dose group): minimal pain (FIG. 5E) and lameness
histological (OARSI) scores of joint sections, matrix catabolism (canine OA model): dramatically reduces the appearance of OA in rat and canine models; also recorded: incremental improvement in the histological scores as the R805 dose increased
histological (OARSI) scores of joint sections, matrix catabolism (canine OA model; listed as CX-011): profound effect on alleviating pain and matrix catabolism
synovial membrane inflammation (canine OA model; low dose (as in saline treated dogs)): profound increase in subintimal vasculature, new connective tissue and cellular infiltrate
protein levels of pSRC after OSM stimulation (pSRC): markedly suppressed; also recorded: prevents pro-inflammatory signaling in OSM-stimulated pig articular chondrocytes
STAT3 signaling in diseased joint cells (STAT3): minimally affected STAT3 signaling in a diseased joint
